Experimental findings from ChEMBL document CHEMBL4052762, “Synthesis and biological evaluation of pyrrole-based chalcones as CYP1 enzyme inhibitors, for possible prevention of cancer and overcoming cisplatin resistance” (Bioorg Med Chem Lett, 2017) are described below.

For data set [1], the target named is T1, Cytochrome P450 3A4 (Homo sapiens, UniProt P08684). The data set can be described thus: Inhibition of human CYP3A4 bound to yeast microsomal membrane using dibenzylfluorescein as substrate after 10 mins by fluorescence assay. Type of data set: ADME.
T1 sequence (P08684 whole entry): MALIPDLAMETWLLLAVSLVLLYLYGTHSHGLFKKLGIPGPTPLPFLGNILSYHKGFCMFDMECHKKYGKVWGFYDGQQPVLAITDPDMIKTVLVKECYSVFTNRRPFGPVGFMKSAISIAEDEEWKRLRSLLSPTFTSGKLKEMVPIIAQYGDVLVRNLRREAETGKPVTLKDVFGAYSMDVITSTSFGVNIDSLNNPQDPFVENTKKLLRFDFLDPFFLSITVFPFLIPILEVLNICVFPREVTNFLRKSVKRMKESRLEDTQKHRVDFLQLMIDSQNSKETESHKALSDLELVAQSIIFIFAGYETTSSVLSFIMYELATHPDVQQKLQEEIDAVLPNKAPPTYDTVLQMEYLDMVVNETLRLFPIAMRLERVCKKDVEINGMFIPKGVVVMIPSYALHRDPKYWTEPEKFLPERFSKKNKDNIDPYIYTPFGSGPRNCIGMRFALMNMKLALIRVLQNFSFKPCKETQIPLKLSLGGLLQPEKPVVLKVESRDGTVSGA
Data set [2] addresses T2, Cytochrome P450 1A2 (Homo sapiens, UniProt P05177).
T2 sequence (P05177 whole entry): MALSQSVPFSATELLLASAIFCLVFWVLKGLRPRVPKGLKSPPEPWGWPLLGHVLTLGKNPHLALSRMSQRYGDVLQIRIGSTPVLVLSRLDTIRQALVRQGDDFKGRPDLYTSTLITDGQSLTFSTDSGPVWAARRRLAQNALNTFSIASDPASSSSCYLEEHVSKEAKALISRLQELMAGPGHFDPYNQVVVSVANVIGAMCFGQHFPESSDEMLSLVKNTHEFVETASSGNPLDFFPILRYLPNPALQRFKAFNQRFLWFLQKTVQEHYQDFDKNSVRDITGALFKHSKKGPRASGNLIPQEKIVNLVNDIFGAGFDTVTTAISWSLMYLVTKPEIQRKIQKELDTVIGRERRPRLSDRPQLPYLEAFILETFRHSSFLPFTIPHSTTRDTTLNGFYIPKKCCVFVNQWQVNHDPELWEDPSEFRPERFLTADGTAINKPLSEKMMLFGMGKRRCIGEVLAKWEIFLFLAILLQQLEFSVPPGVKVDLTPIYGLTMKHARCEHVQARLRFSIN
Kind of data set: Inhibition of human CYP1A2 bound to yeast microsomal membrane using 3-cyano-7-ethoxycoumarin as substrate after 10 mins by fluorescence assay.

Data set [3] has as its target T3, Cytochrome P450 2D6 (Homo sapiens, UniProt P10635). Kind of data set: Inhibition of human CYP2D6 bound to yeast microsomal membrane using 7-ethoxy-methyloxy-3-cyanocoumarin as substrate after 10 mins by fluorescence assay. Type of data set: ADME.
For data set [4], the target named is T4, Cytochrome P450 1A1 (Homo sapiens, UniProt P04798).
T4 sequence (P04798 whole entry): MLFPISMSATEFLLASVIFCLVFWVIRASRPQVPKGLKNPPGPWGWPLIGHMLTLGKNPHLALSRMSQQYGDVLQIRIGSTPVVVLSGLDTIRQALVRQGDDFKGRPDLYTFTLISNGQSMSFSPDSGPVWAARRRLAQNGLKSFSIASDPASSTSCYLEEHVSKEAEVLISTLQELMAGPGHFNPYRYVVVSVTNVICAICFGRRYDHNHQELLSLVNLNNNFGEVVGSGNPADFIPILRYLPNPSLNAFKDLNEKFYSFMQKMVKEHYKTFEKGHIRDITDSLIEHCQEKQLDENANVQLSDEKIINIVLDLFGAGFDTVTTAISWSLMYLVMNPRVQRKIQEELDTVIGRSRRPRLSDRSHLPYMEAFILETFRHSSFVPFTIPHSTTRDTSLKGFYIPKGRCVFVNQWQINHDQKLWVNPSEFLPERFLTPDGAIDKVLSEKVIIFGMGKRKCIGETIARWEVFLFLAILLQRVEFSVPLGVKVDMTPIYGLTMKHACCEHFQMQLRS
Kind of data set: Inhibition of human CYP1A1 expressed in HEK293 cells using fluorogenic substrate 7-ethoxyresorufin as substrate preincubated for 30 mins followed by substrate addition measured for 60 mins by fluorescence assay. Type of data set: cell-based.

Data set [5] deals with T5, Aryl hydrocarbon receptor (Homo sapiens, UniProt P35869).
T5 sequence (P35869 whole entry): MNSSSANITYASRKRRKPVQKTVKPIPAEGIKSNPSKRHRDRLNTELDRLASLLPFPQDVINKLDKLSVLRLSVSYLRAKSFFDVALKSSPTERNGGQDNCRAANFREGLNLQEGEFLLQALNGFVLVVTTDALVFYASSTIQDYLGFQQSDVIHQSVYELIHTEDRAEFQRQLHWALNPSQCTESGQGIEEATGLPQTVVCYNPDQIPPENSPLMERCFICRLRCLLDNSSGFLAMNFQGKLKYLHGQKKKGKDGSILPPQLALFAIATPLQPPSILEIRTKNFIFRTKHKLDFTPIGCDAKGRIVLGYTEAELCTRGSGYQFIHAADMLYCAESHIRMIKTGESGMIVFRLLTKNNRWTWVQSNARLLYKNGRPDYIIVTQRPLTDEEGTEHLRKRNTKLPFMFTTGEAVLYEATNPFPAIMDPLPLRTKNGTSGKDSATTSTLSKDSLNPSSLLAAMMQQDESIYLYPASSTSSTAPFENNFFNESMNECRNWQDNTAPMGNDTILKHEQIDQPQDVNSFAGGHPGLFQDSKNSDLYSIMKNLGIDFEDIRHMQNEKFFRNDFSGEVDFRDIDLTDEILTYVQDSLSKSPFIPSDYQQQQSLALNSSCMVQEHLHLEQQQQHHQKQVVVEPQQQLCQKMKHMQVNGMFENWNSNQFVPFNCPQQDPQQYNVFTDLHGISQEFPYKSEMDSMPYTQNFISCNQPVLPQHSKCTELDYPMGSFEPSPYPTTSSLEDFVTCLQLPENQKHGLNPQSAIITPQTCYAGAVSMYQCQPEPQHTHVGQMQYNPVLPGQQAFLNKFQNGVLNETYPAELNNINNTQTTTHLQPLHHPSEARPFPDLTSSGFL
Kind of data set: Antagonist activity at human AhR expressed in Saccharomyces cerevisiae W303-1A (ATCC 208352) transformed with an episomal plasmid containing a minimal CYC1 promoter, with a concatemer of five XRE enhancer sequences, linked to eGFP reporter gene and co-expressing ARNT assessed as inhibition of B[a]P agonist induced XRE-driven eGFP expression by measuring eGFP units at 1 uM after 18 hrs by ….

The target of data set [6] is T4, Cytochrome P450 1A1. Kind of data set: Inhibition of human CYP1A1 bound to yeast microsomal membrane using 7-ethoxyresorufin as substrate after 10 mins by fluorescence assay.
Data set [7] addresses T6, Cytochrome P450 2C19 (Homo sapiens, UniProt P33261). The data set can be described thus: Inhibition of human CYP2C19 bound to yeast microsomal membrane using 3-cyano-7-ethoxycoumarin as substrate after 10 mins by fluorescence assay. Type of data set: ADME.
Data set [8] deals with T3, Cytochrome P450 2D6. The data set can be described thus: Inhibition of human CYP2D6 expressed in HEK293 cells using fluorogenic 7-ethoxy-methyloxy-3-cyanocoumarin as substrate preincubated for 30 mins followed by substrate addition measured for 60 mins by fluorescence assay. Type of data set: ADME, cell-based.
Data set [9] concerns the target T2, Cytochrome P450 1A2. The data set can be described thus: Inhibition of human CYP1A2 expressed in HEK293 cells using fluorogenic 3-cyano-7-ethoxycoumarin as substrate preincubated for 30 mins followed by substrate addition measured for 60 mins by fluorescence assay. In kind it is cell-based.
Data set [10] has as its target T1, Cytochrome P450 3A4. Kind of data set: Inhibition of human CYP3A4 expressed in HEK293 cells using fluorogenic dibenzylfluorescein as substrate preincubated for 30 mins followed by substrate addition measured for 60 mins by fluorescence assay. In kind it is ADME, cell-based.
Data set [11] has as its target T7, Cytochrome P450 2C9 (Homo sapiens, UniProt P11712). Kind of data set: Inhibition of human CYP2C9 expressed in HEK293 cells using fluorogenic 3-cyano-7-ethoxycoumarin as preincubated for 30 mins followed by substrate addition measured for 60 mins by fluorescence assay. Type of data set: ADME, cell-based.
Data set [12] concerns the target T7, Cytochrome P450 2C9. The data set can be described thus: Inhibition of human CYP2C9 bound to yeast microsomal membrane using 3-cyano-7-ethoxycoumarin as substrate after 10 mins by fluorescence assay. Type of data set: ADME.
Data set [13] deals with T6, Cytochrome P450 2C19. Kind of data set: Inhibition of human CYP2C19 expressed in HEK293 cells using fluorogenic 3-cyano-7-ethoxycoumarin as substrate preincubated for 30 mins followed by substrate addition measured for 60 mins by fluorescence assay. In kind it is ADME, cell-based.
Data set [14] deals with T5, Aryl hydrocarbon receptor. Kind of data set: Antagonist activity at human AhR expressed in Saccharomyces cerevisiae W303-1A (ATCC 208352) transformed with an episomal plasmid containing a minimal CYC1 promoter, with a concatemer of five XRE enhancer sequences, linked to eGFP reporter gene and co-expressing ARNT assessed as inhibition of B[a]P agonist induced XRE-driven eGFP expression by measuring eGFP units at 10 uM after 18 hrs by …. Background: In a reporter assay the amount or activity of a reporter protein is the signal.

The target of data set [15] is T5, Aryl hydrocarbon receptor. The data set can be described thus: Antagonist activity at human AhR expressed in Saccharomyces cerevisiae W303-1A (ATCC 208352) transformed with an episomal plasmid containing a minimal CYC1 promoter, with a concatemer of five XRE enhancer sequences, linked to eGFP reporter gene and co-expressing ARNT assessed as inhibition of B[a]P agonist induced XRE-driven eGFP expression by measuring eGFP units at 20 uM after 18 hrs by ….

The target in data set [16] is T5, Aryl hydrocarbon receptor. The data set can be described thus: Antagonist activity at human AhR expressed in Saccharomyces cerevisiae W303-1A (ATCC 208352) transformed with an episomal plasmid containing a minimal CYC1 promoter, with a concatemer of five XRE enhancer sequences, linked to eGFP reporter gene and co-expressing ARNT assessed as inhibition of B[a]P agonist induced XRE-driven eGFP expression by measuring eGFP units at 5 uM after 18 hrs by ….

Molecules are shown by their SMILES. Some results are limits rather than exact numbers.

T3 sequence (P10635 whole entry): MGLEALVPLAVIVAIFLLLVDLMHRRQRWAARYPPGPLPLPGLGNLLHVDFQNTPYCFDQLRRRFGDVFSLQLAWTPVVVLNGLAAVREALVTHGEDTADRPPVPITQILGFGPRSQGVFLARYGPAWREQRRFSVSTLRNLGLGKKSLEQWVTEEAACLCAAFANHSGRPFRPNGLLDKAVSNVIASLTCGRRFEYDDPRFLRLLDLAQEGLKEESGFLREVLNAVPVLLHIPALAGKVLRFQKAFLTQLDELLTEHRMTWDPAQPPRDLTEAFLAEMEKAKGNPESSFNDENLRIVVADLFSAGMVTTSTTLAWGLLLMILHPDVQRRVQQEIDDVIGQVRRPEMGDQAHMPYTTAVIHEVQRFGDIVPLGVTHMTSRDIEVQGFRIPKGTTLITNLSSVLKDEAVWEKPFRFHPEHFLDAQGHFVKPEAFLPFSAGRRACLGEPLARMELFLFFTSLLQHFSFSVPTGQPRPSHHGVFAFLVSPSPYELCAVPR
T6 sequence (P33261 whole entry): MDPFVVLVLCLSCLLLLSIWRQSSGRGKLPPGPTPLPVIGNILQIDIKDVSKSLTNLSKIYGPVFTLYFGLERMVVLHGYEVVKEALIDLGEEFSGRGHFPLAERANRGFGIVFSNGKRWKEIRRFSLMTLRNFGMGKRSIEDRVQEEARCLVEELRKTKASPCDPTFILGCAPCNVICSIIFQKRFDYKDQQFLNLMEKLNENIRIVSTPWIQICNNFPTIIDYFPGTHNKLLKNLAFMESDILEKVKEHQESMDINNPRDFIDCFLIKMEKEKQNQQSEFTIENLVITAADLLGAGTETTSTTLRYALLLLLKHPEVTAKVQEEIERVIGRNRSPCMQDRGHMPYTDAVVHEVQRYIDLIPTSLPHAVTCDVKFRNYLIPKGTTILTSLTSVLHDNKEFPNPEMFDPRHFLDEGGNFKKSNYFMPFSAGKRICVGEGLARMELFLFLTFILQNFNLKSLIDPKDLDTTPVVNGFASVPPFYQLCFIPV
T7 sequence (P11712 whole entry): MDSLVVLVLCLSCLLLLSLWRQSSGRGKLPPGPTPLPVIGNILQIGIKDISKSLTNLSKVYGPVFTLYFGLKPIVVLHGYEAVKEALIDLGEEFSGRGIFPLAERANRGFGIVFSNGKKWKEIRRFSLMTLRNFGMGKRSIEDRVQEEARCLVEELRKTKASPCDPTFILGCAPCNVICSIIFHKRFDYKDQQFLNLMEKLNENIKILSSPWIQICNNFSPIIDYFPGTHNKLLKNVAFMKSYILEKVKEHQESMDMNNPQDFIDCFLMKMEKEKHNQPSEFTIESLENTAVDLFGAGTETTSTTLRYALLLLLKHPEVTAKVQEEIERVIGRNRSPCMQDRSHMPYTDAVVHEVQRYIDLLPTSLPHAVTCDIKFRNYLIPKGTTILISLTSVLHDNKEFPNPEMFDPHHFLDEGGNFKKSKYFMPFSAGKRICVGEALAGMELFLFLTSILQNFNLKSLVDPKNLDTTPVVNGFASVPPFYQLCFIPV

For `COc1ccccc1/C=C/C(=O)c1ccc[nH]1`, the IC50 (commonly the point on the concentration scale where inhibition reaches its midpoint) against Cytochrome P450 3A4 [1] is over 20 µM; on Cytochrome P450 1A2 [2], 1.1 µM; against Cytochrome P450 2D6 [3], 20 µM; at Cytochrome P450 1A1 [4], 1.2 µM; against Cytochrome P450 1A1 [6], 0.9 µM; at Cytochrome P450 2C19 [7], over 20 µM. Moreover, the IC50 is 20 µM on Cytochrome P450 2D6 [8]; 1.1 µM against Cytochrome P450 1A2 [9]; over 10 µM against Cytochrome P450 3A4 [10]; over 10 µM on Cytochrome P450 2C9 [11]; over 20 µM against Cytochrome P450 2C9 [12]; over 10 µM against Cytochrome P450 2C19 [13]. Further, the Activity in [5] amounted to 600 U; in data set [14] it was 150 U; in [15], 120 U; in data set [16] it was 220 U.
In the case of `O=C(/C=C/c1ccc(OC(F)(F)F)cc1)c1ccc[nH]1`, the IC50 is over 20 µM against Cytochrome P450 3A4 [1]; over 20 µM on Cytochrome P450 1A2 [2]; 16 µM on Cytochrome P450 2D6 [3]; over 20 µM at Cytochrome P450 1A1 [4]; over 20 µM against Cytochrome P450 1A1 [6]; over 20 µM against Cytochrome P450 2C19 [7]. The IC50 against Cytochrome P450 2D6 [8], at Cytochrome P450 1A2 [9], against Cytochrome P450 3A4 [10], on Cytochrome P450 2C9 [11], against Cytochrome P450 2C9 [12] and against Cytochrome P450 2C19 [13] was over 20 µM each time. The Activity in data set [5], in data set [14], in [15] and in data set [16] was 955 U throughout.
`O=C(/C=C/c1ccccc1Cl)c1ccc[nH]1`: the IC50 is over 20 µM against Cytochrome P450 3A4 [1]; 0.7 µM on Cytochrome P450 1A2 [2]; 12 µM against Cytochrome P450 2D6 [3]; over 20 µM against Cytochrome P450 1A1 [4]; 9.1 µM against Cytochrome P450 1A1 [6]; over 20 µM against Cytochrome P450 2C19 [7]. Besides, the IC50 at Cytochrome P450 2D6 [8] is over 10 µM; at Cytochrome P450 1A2 [9], 0.9 µM; against Cytochrome P450 3A4 [10], over 10 µM; on Cytochrome P450 2C9 [11], over 10 µM; against Cytochrome P450 2C9 [12], over 20 µM; on Cytochrome P450 2C19 [13], over 10 µM. Moreover, the Activity in data set [5] came out at 920 U; in data set [14], 455 U; in [15] it was 285 U; in data set [16], 770 U.
